Data on two compounds can be found in patent US20230357312A1, “Borylated Di-Peptide Amino Acid compositions for use in Boron Neutron Capture Therapy and methods thereof” (TAE Life Sciences, priority 2021, published 2023).

Molecules are shown by their SMILES. Entries after “also recorded” stand apart in the source; their conditions may differ.

A short description of data set [1]: Solubility. It counts as physicochemical.
Data set [2] has as its system CT26. The experiment in a line: Borylated dipeptide uptake in cancer cell lines (boron by ICP-OES). The data set is classed as cell-based, mouse. To be noted: 2.5 mM in HBSS, 37° C., 2 hrs. The procedure: (§1) The indicated cancer cell line (A) or FaDu cells (B) were harvested from culture and washed twice with PBS. Cell lines were adjusted to 2 million cells/ml in Hanks Balanced Salt Solution (HBSS). BPA or dipeptide boron compounds were added to cells at the final concentration of 2.5 mM in HBSS and the treated cells were incubated at 37° C. 5% CO2 for 2 hrs with shaking. The cells were collected by centrifugation; washed with cold PBS twice and reconstituted in 1 ml of cold PBS. Then, 50 µl of cell suspension was removed, pelleted, and lysed using RIPA buffer and the protein concentration was determined using BCA assay. The remaining 950 µl was used for boron compounds uptake measurements using ICP-OES.
(§2) To this end, 0.5 mL of concentrated nitric acid was added to each cell pellet in a 15 mL conical tube. The tubes were capped and placed in an oven set at 80° C. for 3 hours. […] The boron content in each sample was then measured on an Agilent 5110 ICP-OES using an Agilent SPS4 Autosampler for sample introduction.
(§3) The data was analyzed using Agilent’s ICP Expert Software, version 7.4.2.10790. Boron was measured axially at the 249.772 nm wavelength and the internal standard Beryllium was measured axially at the 313.042 nm wavelength. […] Once determined, the boron measurement for each sample was normalized to protein content and final boron uptake results were expressed as ng boron/mg protein.

In data set [3] the test system is T98G. The data set is described as above. The data set is classed as cell-based, human. To be noted: 2.5 mM in HBSS, 37° C., 2 hrs. The procedure:
as §1, §2, §3

In data set [4] the test system is FaDu cells. Described as above. It counts as cell-based, human. The following applies: 2.5 mM in HBSS, 37° C., 2 hrs; FaDu: high LAT1, PEPT1 negative. The procedure: as §1
To this end, 0.5 mL of concentrated nitric acid was added to each cell pellet in a 15 mL conical tube. The tubes were capped and placed in an oven set at 80° C. for 3 hours. 2 mL of water was added’ to each sample to bring the final volume up to 2.5 mL. The boron content in each sample was then measured on an Agilent 5110 ICP-OES using an Agilent SPS4 Autosampler for sample introduction.
The data was analyzed using Agilent’s ICP Expert Software, version 7.4.2.10790. Boron was measured axially at the 249.772 nm wavelength and the internal standard Beryllium was measured axially at the 313.042 nm wavelength. Beryllium was tee-ed into the solution at 1:5 the flowrate before introduction to the spray chamber. A standard curve using 1000, 100, 10, 1 and 0 ppb of boron was used to calculate the concentration of boron in each sample. Once determined, the boron measurement for each sample was normalized to protein content and final boron uptake results were expressed as ng boron/mg protein.
In another experiment, uptake of BPA and dipeptide His-BPA was carried out in FaDu, and ASPC-1 as described in FIG. 15. […] Accordingly, the data supports the finding that borylated dipeptides may be taken up efficiently in PEPT1 or other dipeptide transporter expressing cancers. See, FIG. 16(C).
In this experiment, the uptake of several dipeptide and dipeptide analogs was carried out in FaDu and ASPC-1 cells. Normalized boron uptake was determined as in FIG. 15. […] However, several dipeptides are still taken up in PEPT1 negative FaDu cells, although to a lower extent, which further confirms the proposition that an uptake mechanism does exist in FaDu cells for these dipeptides that is not PEPT1. See, FIG. 19.

Data set [5] relates to A431. Described as above. The data set is classed as cell-based. The following applies: 2.5 mM in HBSS, 37° C., 2 hrs. The procedure:
as §1, §2, §3

The subject of data set [6] is FaDu cells. The experiment in a line: Dipeptide degradation to BPA by HPLC. The data set is classed as in vitro ADME, human. The method, then:
In this experiment, to investigate whether dipeptides are converted to BPA, which is then taken up through its cognate transporter, evaluation of whether dipeptides remained intact in the tissue culture media in the presence of absence of cancer cells was made using the following protocols. Briefly, FaDu cells were harvested and counted. The cell number was adjusted to 50×10^5 / mL in the HBSS tissue culture medium using 1 mL per well. The cells were incubated at 37° C. in the 5% CO2 overnight. At the end, the supernatants were aspirated, and cells were rinsed with 1 mL PBS once. Each test article was prepared at 2.5 mM concentration in HBSS medium, and 0.4 mL was added to cells. After 4 hrs. at 37° C. the supernatants were harvested and analyzed by RP HPLC using an ACQUITY BEH C18 column 2.1 × […] (Waters) equipped with a matching guard column equilibrated with 2% aqueous acetonitrile/0.1% formic acid mobile phase. The dipeptides were separated in the gradient of 90% acetonitrile/10% water/0.1% formic acid to 20% in 6 min and identified by UV225 nm. The masses were confirmed by an online QDA mass spectrometer. Breakdown of the original dipeptide was quantitated by comparing with the control - the same dipeptide incubated in the same fashion in the absence of cells. Stabilities of BPA-BPA, Ala-BPA, and BPA-Ala were compared, and the formation of BPA was measured semi-quantitatively by RP-HPLC/MS.

A short description of data set [7]: Pharmacokinetics (blood boron by ICP OES). The following applies: tail vein injection. It counts as in vivo, Balb/C non-tumor bearing male mice. The procedure: In this experiment, pharmacokinetics of BPA-BPA was evaluated using the following protocols. Briefly, […] of each compound was injected in the tail vein of Balb/C non-tumor bearing male mice (5 mice per group). Blood was drawn at the following time points: 2, 5, 16, 30, 60, 120 and 240 minutes into EDTA-coated tubes. Boron concentration was measured using ICP OES following the digestion in concentrated nitric acid for 1 hour. The boron concentration was normalized to 1 mL of blood and plotted using GraphPad Prizm. The PK parameters (see, FIG. 22, Table) were obtain using PK Solver ver. 2.0 using compartmental analysis BPA-fructose was used as a reference substance.

The subject of data set [8] is FaDu, Detroit-562, MeWo, HCC-1954, A549 and AsPC-1 human cancer xenograft models. The experiment in a line: Dose escalation of boron delivery, all tested xenograft models. The data set is classed as in vivo, CB17 SCID mice. To be noted: 1000 mg/kg, 120 minutes. The method, then: Tumors were harvested 120 minutes following treatment and boron content determined by ICP-OES. Data are the means ± SD of 5 mice per treatment group.

Data set [9] has as its system CT26 xenografts. Description: BNCT study, 12 or 6 minute irradiation at 5 MW. It counts as in vivo, BALB/c mice. The following applies: 800 mg/kg, 12 minutes irradiation at 5 MW, monitored to 22 days. The method, then:
Following one (1) hour of treatment time, mice were irradiated for either 12 minutes (33(A)) or 6 minutes (33(B)) at the Kyoto University Research Reactor (Kyoto, Japan) 1 set at 5 megawatts. Data are the means ± SD of 3 mice per treatment group. Tumors were measured for growth out to 22 days.

In data set [10] the test system is CT26 xenografts. The experiment in a line: BNCT tumor regression study, 6 minute irradiation. It counts as in vivo, BALB/c mice. To be noted: 900 mg/kg, 6 minutes irradiation; for tumor growth after BNCT: sustained out to 36 days. The procedure: In this experiment, CT26 xenografts in BALB/c mice were dosed with 400 mg/kg of BPA or 900 mg/kg of His-BPA or BPA-BPA. Following one (1) hour treatment time, mice were irradiated for 6 minutes at the Kyoto University Research Reactor (Kyoto, Japan) 1 set at 5 megawatts. Data are the means ± SD of 3 mice per treatment group. Tumors were measured for growth out to 36 days and examined for tumor presence at 40 days. BPA and control groups were sacrificed at day 18 due to excessive tumor growth.

A short description of data set [11]: Pharmacokinetics of BPA-BPA. An excerpt: Table printed on a drawing sheet, Figure 28, continued. Title: Pharmacokinetics of BPA-BPA The patent's description of the figure: FIG. 28. Pharmacokinetics of BPA-BPA. First reader's note: Continuation of Figure 28; BPA-BPA is a borylated dipeptide, BPA Fructose is the comparator formulation.
The test system of data set [12] is AsPC-1 cells. The experiment in a line: Uptake of BPA and dipeptides in PEPT1 high expressing cells. The data set is classed as cell-based, human. To be noted: PEPT1 high expressing AsPC1 cells. The procedure:
as §1, §2
The data was analyzed using Agilent’s ICP Expert Software, version 7.4.2.10790. Boron was measured axially at the 249.772 nm wavelength and the internal standard Beryllium was measured axially at the 313.042 nm wavelength. […] Once determined, the boron measurement for each sample was normalized to protein content and final boron uptake results were expressed as ng boron/mg protein. […]

Data set [13] relates to AsPC-1 cells. The experiment in a line: Uptake inhibition by PEPT1 competitive inhibitor Gly-SAR. The data set is classed as cell-based, human. The following applies: 0.8 mM test compound, with and without Gly-SAR. The method, then:
(§4) In this experiment, uptake of BPA and dipeptide His-BPA (0.8 mM of each) was carried out in FaDu and ASPC-1 in the presence and absence of the indicated concentrations of PEPT1 dipeptide transporter competitive inhibitor Gly-SAR. Normalized boron uptake was determined as in FIG. 15.

The subject of data set [14] is FaDu cells. The data set is described as above. The data set is classed as cell-based, human. The procedure: as §4
Data set [15] concerns FaDu subcutaneous tumors. Description: Biodistribution of His-BPA, FaDu tumors in vivo. To be noted: His-BPA 4X higher dose than BPA-F. Further details: species or system female CB17 SCID mice. The method, then: In this experiment, biodistribution of His-BPA was evaluated in vivo using the following protocols. All animal studies were carried out following the “Guide for the Care and Use the Laboratory Animals,” 8th Ed. and Animal Welfare Act (USDA). Human hypopharyngeal squamous cell carcinoma FaDu cells were maintained in DMEM, supplemented with L-glutamine and 10% FBS.
Subcutaneous (s.c.) tumors were generated by injection of 2.5 × 10^6 cancer cells mixed at a 1:1 dilution with Matrigel (Corning Life Sciences) in the right flank of female CB17 SCID mice. Tumor sizes were determined by caliper measurements, and the tumor volume was calculated as width^2×Length/2, wherein width is the smallest dimension and length is the largest dimension. Tumors were allowed to grow untreated until they reached an approximate volume of 300 mm^3. At that point, animals were randomized and allocated to each treatment group based on tumor volume at the time of treatment initiation to ensure similar mean tumor size and variation in each group. Each group received a single dose of BPA at […] or a test article at […] via intravenous tail vein injection. […]
Furthermore, all compounds tested, with the exception of BPA were prepared as 80-100 mg/mL stocks. […] The digested tissues were analyzed by ICP OES to determine the boron concentration.

Consider `N[C@@H](Cc1ccc(B(O)O)cc1)C(=O)N[C@@H](Cc1ccc(B(O)O)cc1)C(=O)O` [BPA-BPA], for which, in data set [1], the “solubility (in words, compared to BPA)” value is given as “improved solubility”. The “boron uptake compared to BPA” value in [2] is “to a similar extent”. In addition, the “boron uptake compared to BPA” value in data set [3] is “to a similar extent”. Besides, the “boron uptake (compared in words)” value in data set [4] was “slightly lower than the LAT1 substrate BPA”. For the same compound, in data set [5], the “boron uptake compared to BPA” value was “slightly lower than the LAT1 substrate BPA”. Moreover, the “relative conversion into BPA in the presence of cells” value in data set [6] (2.5 mM in HBSS, 4 hrs at 37° C., FaDu cells, RP-HPLC/MS semi-quantitative) is reported as “Ala-BPA > BPA-BPA > BPA-Ala”. Further, in data set [6] (2.5 mM, 4 hrs, media, no cells), the “formation of BPA in the absence of cells” value is given as “Only trace amount of BPA”. Besides, in data set [7], the “clearance (CL) compared to BPA” value is “remarkably similar”, the “total drug exposure across time (AUC from zero to infinity) compared to BPA” value is given as “marginally lower” and the “t½ beta (elimination phase) compared to BPA” value is “remarkably similar”. In addition, the pharmacokinetic profile result in [7] (blood boron) is “bi-phasic pharmacokinetics”. Moreover, the “tumor boron delivery, rank among treatments” value in data set [8] is “greatest boron to all tested xenografts”. The “tumor growth after BNCT” value in [9] was “significant and similar growth inhibition, even regression”. Also, in [10], the “tumor growth after BNCT” value is reported as “significant tumor regression”. For the same compound, in data set [11], the “AUC (0 − t)” value was 20463.9 µg·min/mL; the “AUC (0 − ∞)” value is 29133.2 µg·min/mL; the “C0” value amounted to 522.0 µg/mL; the “CL, mg/(μg/mL)/min” value is recorded as 0.000113 mg/(μg/mL)/min. Also, in data set [11], the “CMAX” value worked out at 362.83 µg/mL.

Take `N[C@@H](Cc1c[nH]cn1)C(=O)N[C@@H](Cc1ccc(B(O)O)cc1)C(=O)O` [His-BPA, Histidine-BPA]: the “solubility (in words, compared to BPA)” value in [1] was “high solubility; also recorded: improved solubility”. In data set [12], the “boron uptake compared to BPA” value is “to a higher level than BPA”. The “effect of Gly-SAR on boron uptake” value was “dose dependent inhibitory effect” in [13]; “no effect” in [14] (0.8 mM test compound, with and without Gly-SAR). Also, in [14] (0.8 mM), the “boron signal in PEPT1 negative FaDu cells” value is given as “does deliver a boron signal”. In data set [15], the “boron in the kidneys and pancreas compared to BPA-F” value is on record as “Significantly higher amounts of boron”. The “tumor boron compared to BPA at 200 mg/kg” value in [8] is recorded as “higher boron levels”. For the same compound, the “tumor growth after BNCT” value in data set [9] is “significant and similar growth inhibition, even regression”; in [10] it was “significant tumor regression”. Besides, the “visual inspection and histological examination of the tumor area” value in [10] (one treated mouse) is “lack of tumor tissue and only scar tissue at the original tumor site”.
